Assay [1] deals with T1, enoyl-CoA hydratase encoded by phaJ (SEQ ID NO: 16) (Aeromonas caviae, UniProt O32472).
T1 construct: His tag (C); made in house; host or cells: E. coli BL21[DE3]
T1 sequence (O32472 1-134): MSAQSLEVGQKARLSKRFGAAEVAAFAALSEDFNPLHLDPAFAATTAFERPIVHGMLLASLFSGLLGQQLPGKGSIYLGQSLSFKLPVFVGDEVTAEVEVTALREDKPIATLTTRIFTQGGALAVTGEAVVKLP
Put plainly: Enzyme activity assay in the reverse (dehydration) direction, LC-MS. To be noted: 1 mM substrate, 5 μM purified enzyme, 10 mM ammonium acetate pH 8, 30° C., 1 h. Type of assay: biochemical. On the procedure:
(§1) The C-terminal his-tagged phaJ gene (SEQ ID NO: 16) from Aeromonas punctata was cloned into a pE23a expression vector under the T7 promoter. The expression vector was transformed into a BL21[DE3] E. coli host.
(§2) The resulting recombinant E. coli strain was cultivated in a 1L shake flask culture containing 100 mL Luria Broth media at 30° C., shaking at 200 rpm. The culture was induced using 1 mM IPTG for 2 h.
(§3) The pellet from each of the induced shake flask cultures was harvested by centrifugation. The pellet was resuspended in 20 mM HEPES (pH=7.2), 1 mM PMSF and 29U benzonase. The resuspended pellet was lysed via sonication. The cell debris was separated from the supernatant via centrifugation and filtered using a 0.2 μm filter.
(§4) The phaJ enzyme was purified from the supernatant using Ni-affinity chromatography and concentrated to 1.25 mg/mL.
The native enzyme activity assay in the reverse (dehydration) direction was undertaken in a buffer composed of 10 mM ammonium acetate (pH=8) and 1 mM of racemic 3-hydroxybutanoyl-CoA. The enzyme activity assay reaction was initiated by adding 5 μM of purified enoyl-CoA hydratase to the assay buffer containing the substrate and incubated at 30° C. for 1 h. The enzyme encoded by phaJ accepted 3-hydroxybutanoyl-CoA as substrate as confirmed via LC-MS.
The non-native enzyme activity assay in the reverse (dehydration) direction was undertaken in a buffer composed of 10 mM ammonium acetate (pH=8) and 1 mM of 3-methyl-3-hydroxypentanoyl-CoA. The enzyme activity assay reaction was initiated by adding 5 μM of purified enoyl-CoA hydratase to the assay buffer containing the substrate and incubated at 30° C. for 1 h. The enzyme encoded by phaJ accepted 3-methyl-3-hydroxypentanoyl-CoA as substrate as confirmed via LC-MS.
The non-native enzyme activity assay in the reverse (dehydration) direction was undertaken in a buffer composed of 10 mM ammonium acetate (pH=8) and 1 mM of 4-methyl-3-hydroxypentanoyl-CoA. […]

The target of assay [2] is T2, linalool dehydratase of SEQ ID NO: 13 (CBW30776.1) (Castellaniella defragrans, UniProt E1XUJ2).
T2 construct: expressed in transfected cells; host or cells: E. coli BL21[DE3], whole cells
Put plainly: Whole cell assay of linalool dehydratase in recombinant E. coli, headspace GC-MS for isoprene. Type of assay: cell-based. Particulars: 20 mM substrate, 160 mg/mL cells in M9 minimal media, 30° C., 48 h, GC-MS versus empty vector control. As to the method:
A sequence encoding a C-terminal His-tag encoding the linalool dehydratase of SEQ ID NO: 13 (see FIGS. 9A-9F) was cloned into a pET15 expression vector under control of the T7 promoter such that a C-terminal HIS tagged enzyme could be produced. The expression vector was transformed into a BL21[DE3] E. coli host. The resulting recombinant E. coli strain was cultivated at 30° C. in a 1L shake flask culture containing 100 mL Auto-Induction media and antibiotic selection pressure, shaking at 220 rpm overnight. The pellet from the induced shake flask culture was harvested via centrifugation and used immediately in a whole cell assay.
The pellet was washed and resuspended in M9 minimal media to 160 mg/mL (wet weight) and dispensed into 10 mL crimped glass vials in triplicate. The substrate 3-methyl-3-buten-2-ol was added to a final concentration of 20 mM and incubated at 30° C. at 220 rpm for 48 h. The headspace of each glass vial was analysed by GC-MS for isoprene and compared to the empty vector control (undertaken in triplicate). The gene product of SEQ ID NO: 13 accepted 3-methyl-3-buten-2-ol as substrate as confirmed via GC-MS (see FIG. 15) and synthesized isoprene as reaction product.

The test system of assay [3] is mevalonate diphosphate decarboxylase of SEQ ID NO: 10 (CAR68209.1). Description: GHMP superfamily enzyme activity assay, headspace GC-MS for isoprene. Format: biochemical, Streptococcus pneumoniae. To be noted: 10 mM substrate, 30 mM ATP, pH 7.0, 30° C., 24 h, GC-MS versus empty vector control. The text has this:
(§5) Each of the sequences encoding a C-terminal His-tagged gene encoding the mevalonate diphosphate decarboxylase of SEQ ID NOs: 8, 9, 10, and 11 respectively (see FIGS. 9A-9F) and the mevalonate 3-kinase of SEQ ID NO: 12 (see FIGS. 9A-9F) was cloned into a PD681-CH expression vector under control of the rhapBAD promoter, such that a C-terminal HIS tagged GHMP superfamily enzyme could be produced. Each expression vector was transformed into a BL21[DE3] E. coli host. The resulting recombinant E. coli strains were cultivated at 37° C. in a 5L shake flask culture containing 1L Luria Broth (LB) media and kanamycin antibiotic selection pressure, with shaking at 90 rpm. At an OD600 between 0.6 to 0.8, the culture was induced with L-rhamnose to a final concentration of 2 g/L. The cultures was induced for 6 h at 37° C. The pellets from the induced shake flask cultures were harvested via centrifugation and stored at −20° C. […]
(§6) Each enzyme activity assay was performed in an assay buffer composed of 100 mM HEPES (pH=7.0), 100 mM KCl, 30 mM MgCl2, 30 mM ATP, 2 mM DTT and 10 mM of 3-methyl-3-hydroxypent-4-enoate as substrate. […] The headspace of each glass vial was analysed by GC-MS for isoprene and compared to the empty vector control. […]

The subject of assay [4] is mevalonate diphosphate decarboxylase of SEQ ID NO: 8 (AAK33797.1). The assay is described as above. Format: biochemical, Streptococcus pyogenes. Particulars: 10 mM substrate, 30 mM ATP, pH 7.0, 30° C., 24 h, GC-MS versus empty vector control.
Text: as §5, §6

Assay [5] addresses T3, mevalonate 3-kinase of SEQ ID NO: 12 (CAC12426.1) (Thermoplasma acidophilum, UniProt Q9HIN1).
T3 construct: His tag (C); made in house; host or cells: E. coli BL21[DE3]
T3 sequence (Q9HIN1 1-318): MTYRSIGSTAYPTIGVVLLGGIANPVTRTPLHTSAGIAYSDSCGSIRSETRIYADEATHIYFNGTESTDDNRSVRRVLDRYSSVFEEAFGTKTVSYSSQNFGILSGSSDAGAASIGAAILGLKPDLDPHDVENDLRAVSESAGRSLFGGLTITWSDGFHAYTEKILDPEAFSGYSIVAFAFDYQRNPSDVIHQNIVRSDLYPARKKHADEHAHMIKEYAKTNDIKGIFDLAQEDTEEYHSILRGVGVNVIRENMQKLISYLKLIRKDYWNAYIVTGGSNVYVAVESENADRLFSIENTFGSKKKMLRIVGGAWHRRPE
Described as above. Format: biochemical. Particulars: 10 mM substrate, 30 mM ATP, pH 7.0, 30° C., 24 h, GC-MS versus empty vector control.
Text: as §5, §6

Assay [6] addresses T4, mevalonate diphosphate decarboxylase of SEQ ID NO: 11 (CAA66158.1) (Saccharomyces cerevisiae, UniProt P32377).
T4 construct: His tag (C); made in house; host or cells: E. coli BL21[DE3]
T4 sequence (P32377 1-396): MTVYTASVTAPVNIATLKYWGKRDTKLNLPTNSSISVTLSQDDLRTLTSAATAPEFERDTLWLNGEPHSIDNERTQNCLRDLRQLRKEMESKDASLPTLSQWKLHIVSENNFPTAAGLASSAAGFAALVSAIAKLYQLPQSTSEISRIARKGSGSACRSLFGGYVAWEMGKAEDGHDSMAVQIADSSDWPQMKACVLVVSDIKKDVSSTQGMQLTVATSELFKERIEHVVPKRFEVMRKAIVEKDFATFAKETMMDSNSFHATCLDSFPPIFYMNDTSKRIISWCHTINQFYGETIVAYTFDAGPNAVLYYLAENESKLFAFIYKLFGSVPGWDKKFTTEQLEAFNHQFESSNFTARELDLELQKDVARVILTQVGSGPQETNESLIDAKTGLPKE
The assay is described as above. Type of assay: biochemical. Particulars: 10 mM substrate, 30 mM ATP, pH 7.0, 30° C., 24 h, GC-MS versus empty vector control.
Text: as §5, §6

For assay [7], the system named is mevalonate diphosphate decarboxylase of SEQ ID NO: 9 (AHF01884.1). The description is as above. Format: biochemical, Thioalkalimicrobium aerophilum. Particulars: 10 mM substrate, 30 mM ATP, pH 7.0, 30° C., 24 h, GC-MS versus empty vector control.
Text: as §5, §6

The target in assay [8] is T1, enoyl-CoA hydratase encoded by phaJ (SEQ ID NO: 16). Description: Native enzyme activity assay in the forward (hydration) direction, spectrophotometry at 263 nm. Type of assay: biochemical, Aeromonas punctata. To be noted: for acceptance as substrate, hydration direction, inferred from reversibility of the enzyme reaction: inferred from the dehydration results and the favoured hydration direction. As to the method: as §1, §2, §3, §4
The native enzyme activity assay in the forward (hydration) direction was undertaken in a buffer composed of 10 mM ammonium acetate (pH=8) and 1 mM of crotonyl-CoA from Sigma-Aldrich at 30° C. The enzyme activity assay reaction was initiated by adding 0.4 μM of purified enoyl-CoA hydratase to the assay buffer containing the substrate. The enzyme encoded by phaJ accepted crotonyl-CoA as substrate as confirmed via spectrophotometry at 263 nm at 30° C.

T2 sequence (E1XUJ2 27-397): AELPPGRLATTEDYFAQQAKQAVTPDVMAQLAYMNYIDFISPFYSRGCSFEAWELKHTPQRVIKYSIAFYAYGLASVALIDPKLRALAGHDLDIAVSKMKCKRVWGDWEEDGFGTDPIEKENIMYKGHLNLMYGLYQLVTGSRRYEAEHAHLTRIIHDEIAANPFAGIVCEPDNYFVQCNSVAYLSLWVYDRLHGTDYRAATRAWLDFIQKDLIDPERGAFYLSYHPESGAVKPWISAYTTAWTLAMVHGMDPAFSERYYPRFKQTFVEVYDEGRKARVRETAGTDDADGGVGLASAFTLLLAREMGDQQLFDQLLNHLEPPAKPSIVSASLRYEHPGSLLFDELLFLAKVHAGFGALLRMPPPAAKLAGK

Regarding `CC(O)CC(=O)SCCNC(=O)CCNC(=O)[C@H](O)C(C)(C)COP(=O)(O)OP(=O)(O)OC[C@H]1O[C@@H](n2cnc3c(N)ncnc32)[C@H](O)[C@@H]1OP(=O)(O)O` (mixture of isomers) [3-hydroxybutanoyl-CoA, reference compound], the “acceptance as substrate, reverse (dehydration) direction” value (“acceptance as substrate, reverse” below) in assay [1] was “accepted”.
As to `C=C(C)C(C)O` (stereo not drawn) [3-methyl-3-buten-2-ol], the “acceptance as substrate, isoprene as reaction product” value in assay [2] is recorded as “accepted”.
With `C=CC(C)(O)CC(=O)O` (stereo not drawn) [3-methyl-3-hydroxypent-4-enoate], the “acceptance as substrate, isoprene as reaction product” value in assay [3], in assay [4], in assay [5], in assay [6] and in assay [7] was “accepted” throughout.
For the molecule `CCC(C)(O)CC(=O)SCCNC(=O)CCNC(=O)[C@H](O)C(C)(C)COP(=O)(O)OP(=O)(O)OC[C@H]1O[C@@H](n2cnc3c(N)ncnc32)[C@H](O)[C@@H]1OP(=O)(O)O` (stereo partly drawn) [3-methyl-3-hydroxypentanoyl-CoA], the “acceptance as substrate, reverse” value in assay [1] is “accepted”.
`CCC(C)=CC(=O)SCCNC(=O)CCNC(=O)[C@H](O)C(C)(C)COP(=O)(O)OP(=O)(O)OC[C@H]1O[C@@H](n2cnc3c(N)ncnc32)[C@H](O)[C@@H]1OP(=O)(O)O` [3-methyl-pent-2-enoyl-CoA]: the “acceptance as substrate, hydration direction, inferred from reversibility of the enzyme reaction” value in assay [8] is given as “accepts”.
In the case of `CC(C)C(O)CC(=O)SCCNC(=O)CCNC(=O)[C@H](O)C(C)(C)COP(=O)(O)OP(=O)(O)OC[C@H]1O[C@@H](n2cnc3c(N)ncnc32)[C@H](O)[C@@H]1OP(=O)(O)O` (stereo partly drawn) [4-methyl-3-hydroxypentanoyl-CoA], the “acceptance as substrate, reverse” value in assay [1] is reported as “accepted”.
For `CC(C)C=CC(=O)SCCNC(=O)CCNC(=O)[C@H](O)C(C)(C)COP(=O)(O)OP(=O)(O)OC[C@H]1O[C@@H](n2cnc3c(N)ncnc32)[C@H](O)[C@@H]1OP(=O)(O)O` [4-methyl-pent-2-enoyl-CoA], the “acceptance as substrate, hydration direction, inferred from reversibility of the enzyme reaction” value in assay [8] is “accepts”.
`C/C=C/C(=O)SCCNC(=O)CCNC(=O)[C@H](O)C(C)(C)COP(=O)(O)OP(=O)(O)OC[C@H]1O[C@@H](n2cnc3c(N)ncnc32)[C@H](O)[C@@H]1OP(=O)(O)O` [crotonyl-CoA, reference compound]: the “acceptance as substrate, forward (hydration) direction” value in assay [8] (1 mM substrate, 0.4 μM purified enzyme, 10 mM ammonium acetate pH 8, 30° C., spectrophotometry at 263 nm) was “accepted”.

Source of the values: patent US10538789B2, “Methods for biosynthesis of isoprene” (INVISTA NORTH AMERICA S.A.R.L., priority 2013, dated 2020).
